Measured values taken from ChEMBL document CHEMBL4219121, “Synthesis, antitumor activity and DNA binding features of benzothiazolyl and benzimidazolyl substituted isoindolines” (Bioorg Med Chem, 2018).
pIC50: −log10 of the molar value. The source made the active and inactive calls. The calls are words filed in the database; no cut-off is given here.

How the values were obtained:
[1] = tested on: Calf thymus DNA; experiment: Binding affinity to calf thymus DNA assessed as change in melting temperature at drug/DNA ratio of 1 by spectrophotmetric method; format: nucleic-acid assay; details: Bos taurus
[2] = tested on: CAKI-2; experiment: Cytotoxicity against human Caki2 cells after 72 hrs by MTT assay; format: functional, cell-based; details: CAKI-2, 72 h
[3] = tested on: Calf thymus DNA; experiment: Binding affinity to calf thymus DNA assessed as change in melting temperature at drug/DNA ratio of 0.5 by spectrophotmetric method; format: nucleic-acid assay; details: Bos taurus
[4] = tested on: Calf thymus DNA; experiment: Binding affinity to calf thymus DNA at 50 uM by circular dichroism spectral analysis; format: nucleic-acid assay; details: Bos taurus
[5] = Drug uptake in human Caki2 cells at 50 uM measured after 5 hrs by Phalloidin CruzFluorTM 488 conjugate/propidium iodide staining based fluorescence microscopic analysis; format: ADME, cell-based; details: caki-2, 5 h
[6] = Drug uptake in nucleus of human Caki2 cells at 50 uM measured after 5 hrs by Phalloidin CruzFluorTM 488 conjugate/propidium iodide staining based fluorescence microscopic analysis; format: ADME, subcellular; details: caki-2, 5 h
[7] = Drug uptake in cytoplasm of human Caki2 cells at 50 uM measured after 5 hrs by Phalloidin CruzFluorTM 488 conjugate/propidium iodide staining based fluorescence microscopic analysis; format: ADME, subcellular; details: caki-2, 5 h
[8] = tested on: MCF7; experiment: Antiproliferative activity against human MCF7 cells after 72 hrs by MTT assay; format: functional, cell-based; details: MCF7, 72 h
[9] = tested on: SW-620; experiment: Antiproliferative activity against human SW620 cells after 72 hrs by MTT assay; format: functional, cell-based; details: SW-620, 72 h
[10] = tested on: HeLa; experiment: Antiproliferative activity against human HeLa cells after 72 hrs by MTT assay; format: functional, cell-based
[11] = tested on: BJ; experiment: Antiproliferative activity against human BJ cells after 72 hrs by MTT assay; format: cell-based
[12] = tested on: HepG2; experiment: Antiproliferative activity against human HepG2 cells after 72 hrs by MTT assay; format: functional, cell-based; details: HepG2, 72 h
[13] = target: DNA topoisomerase 2-alpha (Homo sapiens) (UniProt P11388); experiment: Poison activity at human topoisomerase2 assessed as accumulation of linear DNA at 10 to 50 uM using supercoiled pUC19 as substrate pretreated with substrate for 45 mins followed by […] measured by ethidium bromide staining based agarose gel electrophoresis
[14] = target: T1, DNA topoisomerase 1 (Homo sapiens) (UniProt P11387); experiment: Inhibition of human topoisomerase1-mediated DNA relaxation assessed as DNA intercalation at 5 to 50 uM using supercoiled pUC19 as substrate pretreated with substrate for 45 mins followed by enzyme addition measured by agarose gel electrophoresis
T1 sequence (whole entry): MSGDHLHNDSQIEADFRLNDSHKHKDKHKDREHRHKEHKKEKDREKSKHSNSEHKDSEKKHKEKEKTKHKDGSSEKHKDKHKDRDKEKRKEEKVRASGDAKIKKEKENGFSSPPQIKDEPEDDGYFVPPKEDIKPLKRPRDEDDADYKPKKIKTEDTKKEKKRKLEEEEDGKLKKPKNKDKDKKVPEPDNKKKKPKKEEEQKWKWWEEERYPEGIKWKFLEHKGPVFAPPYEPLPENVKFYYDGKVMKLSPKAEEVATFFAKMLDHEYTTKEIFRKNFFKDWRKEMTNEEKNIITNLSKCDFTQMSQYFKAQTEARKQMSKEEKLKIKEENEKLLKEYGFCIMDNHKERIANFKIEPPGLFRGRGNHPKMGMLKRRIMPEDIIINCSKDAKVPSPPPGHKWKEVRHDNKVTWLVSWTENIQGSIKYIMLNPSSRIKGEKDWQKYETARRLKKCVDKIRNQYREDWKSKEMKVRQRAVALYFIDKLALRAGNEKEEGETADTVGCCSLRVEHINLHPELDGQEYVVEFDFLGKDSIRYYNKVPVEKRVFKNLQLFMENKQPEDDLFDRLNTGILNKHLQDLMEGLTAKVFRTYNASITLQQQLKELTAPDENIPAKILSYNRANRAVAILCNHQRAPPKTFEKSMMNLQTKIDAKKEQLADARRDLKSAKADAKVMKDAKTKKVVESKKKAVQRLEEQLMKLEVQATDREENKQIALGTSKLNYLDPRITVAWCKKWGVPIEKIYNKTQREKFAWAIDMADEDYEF

[15] = tested on: Calf thymus DNA; experiment: Binding affinity to calf thymus DNA assessed as change in melting temperature at drug/DNA ratio of 0.25 by spectrophotmetric method; format: nucleic-acid assay; details: Bos taurus
[16] = target: T1, DNA topoisomerase 1 (Homo sapiens); experiment: Poison activity at human topoisomerase1 assessed as accumulation of nicked DNA at 5 to 50 uM using supercoiled pUC19 as substrate pretreated with substrate for 45 mins followed by enzyme addition measured by agarose gel electrophoresis
[17] = tested on: Calf thymus DNA; experiment: Binding affinity to calf thymus DNA at 1 to 25 uM by circular dichroism spectral analysis; format: nucleic-acid assay; details: Bos taurus
[18] = target: T1, DNA topoisomerase 1 (Homo sapiens); experiment: Poison activity at human topoisomerase1 assessed as accumulation of nicked DNA at 50 uM using supercoiled pUC19 as substrate pretreated with substrate for 45 mins followed by enzyme addition measured by agarose gel electrophoresis relative to control
[19] = target: T1, DNA topoisomerase 1 (Homo sapiens); experiment: Poison activity at human topoisomerase1 assessed as accumulation of nicked DNA at 10 uM using supercoiled pUC19 as substrate pretreated with substrate for 45 mins followed by enzyme addition measured by agarose gel electrophoresis relative to control
[20] = target: T1, DNA topoisomerase 1 (Homo sapiens); experiment: Poison activity at human topoisomerase1 assessed as accumulation of nicked DNA at 20 uM using supercoiled pUC19 as substrate pretreated with substrate for 45 mins followed by enzyme addition measured by agarose gel electrophoresis relative to control
[21] = tested on: SW-620; experiment: Induction of apoptosis in human SW620 cells assessed as phenotypic changes after 24 to 48 hrs by microscopic analysis; format: functional, cell-based
[22] = tested on: Calf thymus DNA; experiment: Binding affinity to calf thymus DNA at 1 to 50 uM by circular dichroism spectral analysis; format: nucleic-acid assay; details: Bos taurus
[23] = tested on: HeLa; experiment: Cell cycle arrest in human HeLa cells assessed as accumulation at subG1 phase at 1 to 5 uM after 24 hrs by propidium iodide staining based flow cytometric method; format: functional
[24] = tested on: SW-620; experiment: Cell cycle arrest in human SW620 cells assessed as accumulation at subG1 phase at 5 uM after 48 hrs by propidium iodide staining based flow cytometric method (reference value: 4.1 to 11.3 %); format: functional
[25] = tested on: SW-620; experiment: Induction of apoptosis in human SW620 cells assessed as activation of caspase-8 at 1 uM after 24 to 48 hrs by colorimetric assay; format: functional, cell-based
[26] = tested on: SW-620; experiment: Induction of apoptosis in human SW620 cells assessed as activation of caspase-2 at 1 uM measured after 48 hrs by colorimetric assay; format: functional, cell-based
[27] = tested on: HeLa; experiment: Induction of apoptosis in human HeLa cells assessed as phenotypic changes after 24 to 48 hrs by microscopic analysis; format: functional, cell-based
[28] = tested on: HeLa; experiment: Induction of apoptosis in human HeLa cells assessed as activation of caspase-2 at 1 uM measured after 48 hrs by colorimetric assay; format: functional, cell-based
[29] = tested on: SW-620; experiment: Induction of apoptosis in human SW620 cells assessed as activation of caspase-6 at 1 uM measured after 48 hrs by colorimetric assay; format: functional, cell-based
[30] = tested on: SW-620; experiment: Cell cycle arrest in human SW620 cells assessed as accumulation at subG1 phase at 1 uM after 48 hrs by propidium iodide staining based flow cytometric method (reference value: 4.1 to 11.3 %); format: functional
[31] = tested on: HeLa; experiment: Cell cycle arrest in human HeLa cells assessed as accumulation at subG1 phase at 5 uM after 48 hrs by propidium iodide staining based flow cytometric method (reference value: 17 to 20.1 %); format: functional
[32] = tested on: HeLa; experiment: Cell cycle arrest in human HeLa cells assessed as accumulation at subG1 phase at 1 uM after 48 hrs by propidium iodide staining based flow cytometric method (reference value: 17 to 20.1 %); format: functional
[33] = tested on: SW-620; experiment: Cell cycle arrest in human SW620 cells assessed as accumulation at subG1 phase at 1 to 5 uM after 24 hrs by propidium iodide staining based flow cytometric method; format: functional
[34] = tested on: HeLa; experiment: Induction of apoptosis in human HeLa cells assessed as activation of caspase-8 at 1 uM after 24 to 48 hrs by colorimetric assay; format: functional, cell-based

Sequence of DNA topoisomerase 2-alpha (Homo sapiens) (P11388 whole entry): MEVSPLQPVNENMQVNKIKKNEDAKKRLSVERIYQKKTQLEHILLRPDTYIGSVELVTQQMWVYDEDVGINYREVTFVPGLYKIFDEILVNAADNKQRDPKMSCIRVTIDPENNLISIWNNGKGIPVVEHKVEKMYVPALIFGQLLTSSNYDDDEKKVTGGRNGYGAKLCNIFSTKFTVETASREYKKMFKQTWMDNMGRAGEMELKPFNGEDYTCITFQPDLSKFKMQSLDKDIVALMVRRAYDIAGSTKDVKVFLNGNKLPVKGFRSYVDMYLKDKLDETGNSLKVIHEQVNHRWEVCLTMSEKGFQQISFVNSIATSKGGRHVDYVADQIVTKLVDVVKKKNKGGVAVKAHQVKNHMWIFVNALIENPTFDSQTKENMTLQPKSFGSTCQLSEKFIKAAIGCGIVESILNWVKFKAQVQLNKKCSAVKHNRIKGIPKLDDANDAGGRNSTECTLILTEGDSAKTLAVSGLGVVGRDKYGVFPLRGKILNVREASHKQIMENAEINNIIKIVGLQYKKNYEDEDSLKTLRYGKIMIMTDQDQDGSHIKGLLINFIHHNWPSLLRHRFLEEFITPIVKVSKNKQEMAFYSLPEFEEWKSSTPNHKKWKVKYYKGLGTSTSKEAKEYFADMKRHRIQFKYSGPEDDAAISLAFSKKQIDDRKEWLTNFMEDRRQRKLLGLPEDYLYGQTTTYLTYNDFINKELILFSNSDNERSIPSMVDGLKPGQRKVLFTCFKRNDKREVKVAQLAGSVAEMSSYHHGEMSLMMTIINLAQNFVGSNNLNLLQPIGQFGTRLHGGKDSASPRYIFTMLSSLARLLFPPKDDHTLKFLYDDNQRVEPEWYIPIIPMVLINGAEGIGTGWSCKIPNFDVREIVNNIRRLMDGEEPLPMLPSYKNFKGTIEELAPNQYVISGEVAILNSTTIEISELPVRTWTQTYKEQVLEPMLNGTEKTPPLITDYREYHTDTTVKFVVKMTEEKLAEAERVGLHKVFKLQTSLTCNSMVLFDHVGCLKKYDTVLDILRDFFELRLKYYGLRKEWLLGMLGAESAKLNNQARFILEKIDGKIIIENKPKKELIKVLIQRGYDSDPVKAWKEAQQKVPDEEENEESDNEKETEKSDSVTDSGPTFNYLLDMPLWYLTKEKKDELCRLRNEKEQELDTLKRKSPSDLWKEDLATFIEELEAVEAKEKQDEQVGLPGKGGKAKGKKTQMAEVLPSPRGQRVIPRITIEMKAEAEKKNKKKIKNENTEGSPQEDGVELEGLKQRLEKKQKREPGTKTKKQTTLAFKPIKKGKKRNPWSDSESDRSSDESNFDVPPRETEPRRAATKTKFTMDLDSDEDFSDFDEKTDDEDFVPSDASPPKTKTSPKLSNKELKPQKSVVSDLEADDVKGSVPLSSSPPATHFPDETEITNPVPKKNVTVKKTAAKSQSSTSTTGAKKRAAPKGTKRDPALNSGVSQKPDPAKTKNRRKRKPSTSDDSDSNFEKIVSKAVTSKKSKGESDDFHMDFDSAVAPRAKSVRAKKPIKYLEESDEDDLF

| Structure (SMILES) | ΔTm [1] [°C] | pIC50 [2] | ΔTm [3] [°C] | Drug uptake [5] | Drug uptake [6] | Drug uptake [7] | pIC50 [8] | pIC50 [9] | pIC50 [10] | pIC50 [11] | pIC50 [12] | ΔTm [15] [°C] | also measured |
| --- | --- | --- | --- | --- | --- | --- | --- | --- | --- | --- | --- | --- | --- |
| N#Cc1ccc2nc(/N=C3\c4ccccc4CN3c3nc4ccc(C#N)cc4s3)sc2c1 | -0.7 | 4.66 | -1.1 | Active | Active | Active | – | – | – | – | – | – | Activity [4]: inactive |
| O=C1c2ccccc2CN1c1nc2ccc(C3=NCCN3)cc2[nH]1 | – | – | – | – | – | – | 5.54 | 5.06 | 5.21 | 5.33 | 4.78 | – | – |
| COc1cc([C@@H]2c3cc4c(cc3[C@@H](O[C@@H]3O[C@@H]5CO[C@@H](C)O[C@H]5[C@H](O)[C@H]3O)[C@H]3COC(=O)[C@H]23)OCO4)cc(OC)c1O | – | – | – | – | – | – | – | – | – | – | – | – | Activity [13]: Active |
| CC(C)NC(=N)c1ccc2nc(/N=C3\c4ccccc4CN3c3nc4ccc(C(=N)NC(C)C)cc4s3)sc2c1.Cl.Cl | – | 4.40 | 18 | Active | Active | Active | 4.05 | 4.31 | 4.28 | 5.33 | 4.16 | 12.7 | inhibition (qualitative) [14]: Active |
| N#Cc1ccc2nc(/N=C3\c4ccccc4CN3c3nc4ccc(C#N)cc4[nH]3)[nH]c2c1 | -0.5 | < 4.00 | -0.4 | Active | Active | Active | 7.70 | 4.16 | 4.12 | < 4.00 | 4.75 | – | Activity [4]: inactive |
| CC(C)NC(=N)c1ccc2nc(N3Cc4ccccc4C3=O)[nH]c2c1 | – | – | – | – | – | – | 6.03 | 4.15 | 4.07 | 5.24 | < 4.00 | – | – |
| N#Cc1ccc2nc(N3Cc4ccccc4C3=O)sc2c1 | – | – | – | – | – | – | 5.00 | < 4.00 | 4.26 | 4.35 | 4.21 | – | – |
| CC(C)NC(=N)c1ccc2nc(/N=C3\c4ccccc4CN3c3nc4ccc(C(=N)NC(C)C)cc4[nH]3)[nH]c2c1.Cl.Cl | – | < 4.00 | 12.9 | Active | Active | Active | 4.18 | < 4.00 | 4.01 | < 4.00 | 4.07 | 7 | Activity [16]: Active; Activity [17]: Active; inhibition (qualitative) [14]: Active; fold change (FC) [18]: 2.2 |
| c1ccc2c(c1)CN(c1nc3ccccc3[nH]1)/C2=N/c1nc2ccccc2[nH]1 | -0.5 | – | -0.7 | – | – | – | 5.13 | < 4.00 | 5.03 | 4.65 | 5.11 | -0.6 | – |
| CC[C@@]1(O)C(=O)OCc2c1cc1n(c2=O)Cc2cc3ccccc3nc2-1 | – | – | – | – | – | – | – | – | – | – | – | – | Activity [16]: Active; fold change (FC) [19]: 2; fold change (FC) [20]: 2.3 to 2.9; fold change (FC) [18]: 2.5 to 3.2 |
| N=C(N)c1ccc2nc(N3Cc4ccccc4C3=O)[nH]c2c1 | – | – | – | – | – | – | < 4.00 | < 4.00 | 4.28 | 4.33 | 4.04 | – | – |
| N#Cc1ccc2nc(N3Cc4ccccc4C3=O)[nH]c2c1 | – | – | – | – | – | – | 5.30 | < 4.00 | 4.62 | 4.80 | 5.00 | – | – |
| Cl.O=C1c2ccccc2CN1c1nc2ccc(C3=NCCN3)cc2s1 | 6.2 | 5.82 | 3.1 | Active | Active | Active | 6.15 | 6.13 | 6.00 | 6.70 | 6.11 | 1.8 | Activity [21]: Active; Activity [22]: Active; Activity [23]: inactive; Activity [24]: 85.9%; Activity [25]: inactive; Activity [26]: Active; Activity [27]: Active; Activity [28]: Active; Activity [29]: Active; Activity [30]: 34.4%; Activity [31]: 70.7%; Activity [13]: Active; Activity [32]: 29.1%; Activity [33]: inactive; Activity [34]: inactive |
| Cl.Cl.c1ccc2c(c1)CN(c1nc3ccc(C4=NCCN4)cc3s1)/C2=N/c1nc2ccc(C3=NCCN3)cc2s1 | 12.2 | 4.90 | 10.5 | Active | Active | Active | 5.83 | < 4.00 | 4.13 | 4.50 | 4.46 | 6.8 | Activity [16]: Active; Activity [17]: Active; fold change (FC) [19]: 1.5 to 3.7; fold change (FC) [20]: 3.7 to 9; inhibition (qualitative) [14]: Active; fold change (FC) [18]: 3.5 |
| c1ccc2c(c1)CN(c1nc3ccccc3s1)/C2=N/c1nc2ccccc2s1 | -2.2 | 4.95 | -1.3 | Active | Active | Active | 7.10 | 5.16 | 5.33 | 5.31 | 6.09 | – | Activity [4]: inactive |
